Data as given in patent US20120322819A1, “COMPOUND CONTAINING A NOVEL 4-ALKOXYPYRIMIDINE STRUCTURE AND MEDICINE CONTAINING SAME” (KOWA COMPANY, LTD., priority 2010, published 2012).

target: T1, human PPARγ2 (Homo sapiens, UniProt P37231); test: PPARγ activation activity, Gal4-PPARγ2 LBD chimera luciferase transfection assay in COST cells; assay type: cell-based; settings: Gal4 (aa 1-147)/human PPARγ2 LBD (aa 182-505) chimera, luciferase reporter, 16 hours, rosiglitazone (3 to 10 μmol/L) = 100%, read-out: EC50 (50% effective concentration, PPARγ activation)
T1 construct: the amino acids 182 to 505 of human PPARγ2; expressed in transfected cells; host or cells: COST cells (so in the source)
T1 sequence (P37231 182-505): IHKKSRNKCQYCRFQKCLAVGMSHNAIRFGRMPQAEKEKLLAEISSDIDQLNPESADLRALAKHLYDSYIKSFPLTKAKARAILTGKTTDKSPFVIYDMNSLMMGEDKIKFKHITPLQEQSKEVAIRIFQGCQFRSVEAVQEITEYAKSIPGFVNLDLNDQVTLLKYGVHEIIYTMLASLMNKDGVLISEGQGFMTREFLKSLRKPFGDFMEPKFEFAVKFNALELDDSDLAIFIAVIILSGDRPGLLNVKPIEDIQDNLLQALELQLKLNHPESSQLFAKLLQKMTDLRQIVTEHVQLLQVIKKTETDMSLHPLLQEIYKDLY
Procedure: PPARγ Activation Activity
The agonistic activity of the compounds of the invention on PPARγ was measured based on the transfection assay using COST cells (DS Pharma Biomedical Co., Ltd., Osaka, Japan), which are the cell line derived from the kidney of the African green monkey. COST cells were cultured under 5% CO2 concentration, and DMEM medium containing 10% fetal bovine serum, glutamic acid, and antibiotics was used as a medium.
As an expression vector, a chimera in which DNA binding domain of Ga14, which is a yeast transcription factor, and ligand binding domain of human PPARγ2 are fused, i.e., a fused product between the amino acids 1 to 147 of Gal4 transcription factor and the amino acids 182 to 505 of human PPARγ2, was used. Furthermore, as a reporter vector, a firefly luciferase containing five copies of Gal4 recognition sequence in the promoter region was used. Plasmid transfection to the cells was performed according to a method which uses jetPEI (trade name, manufactured by Funakoshi Co., Ltd., Tokyo, Japan). Furthermore, β-galactosidase expression vector was employed as an internal standard.
After the transfection of the cells, the medium was replaced with a DMEM medium (containing 1% serum) added with the test compound, and the cells were further cultured for 16 hours. After that, the luciferase activity and β-galactosidase activity in the cell lysis solution were measured.
For the present test, dimethylsulfoxide (DMSO) was used for dissolution and dilution of the test compounds, and during the cell treatment, the DMSO concentration in DMEM medium (containing 1% serum) was adjusted to 0.1%. As a positive compound, rosiglitazone (trade name, manufactured by ALEXIS Corporation, Switzerland) was used. The percentage (%) of the luciferase activity of the each test compound (1 to 30 μmol/L) was calculated when the luciferase activity of rosiglitazone (3 to 10 μmol/L) is 100% and the luciferase activity in the absence of the test compound is 0%. The 50% effective concentration of the test compound (EC50, 50% effect concentration) was calculated by using SAS Preclinical Package Ver 5.0 (trade name, manufactured by SAS institute Japan Co., Tokyo, Japan), which is a statistical analysis program.

EC50 [nM]	Structure (SMILES)
2870	CCCCc1nc(C)nc(OCC(N)=O)c1Cc1ccc(-c2ccccc2-c2noc(=O)[nH]2)cc1 [Example 3, 2-{{6-butyl-2-methyl-5-{[2′-(5-oxo-4,5-dihydro-1,2,4-oxadiazol-3-yl)-[1,1′-biphenyl]-4-yl]methyl}pyrimidin-4-yl}oxy}acetamide]
2800	CCCCc1nc(C)nc(OCCCC(=O)NCC)c1Cc1ccc(-c2ccccc2-c2noc(=O)[nH]2)cc1 [Example 9, 4-{{6-butyl-2-methyl-5-{[2′-(5-oxo-4,5-dihydro-1,2,4-oxadiazol-3-yl)-[1,1′-biphenyl]-4-yl]methyl}pyrimidin-4-yl}oxy}-N-ethylbutanamide]
1790	CCCCc1nc(C)nc(OCCCC(=O)N(CC)CC)c1Cc1ccc(-c2ccccc2-c2noc(=O)[nH]2)cc1 [Example 10, 4-{{6-butyl-2-methyl-5-{[2′-(5-oxo-4,5-dihydro-1,2,4-oxadiazol-3-yl)-[1,1′-biphenyl]-4-yl]methyl}pyrimidin-4-yl}oxy}-N,N-diethylbutanamide]
870	CCCCc1nc(C)nc(OCCOCC)c1Cc1ccc(-c2ccccc2-c2noc(=O)[nH]2)cc1 [Example 11, 3-{4′-{[4-butyl-6-(2-ethoxyethoxy)-2-methylpyrimidin-5-yl]methyl}-[1,1′-biphenyl]-2-yl}-1,2,4-oxadiazol-5(4H)-one]
570	CCCCc1nc(C)nc(OCCOCCC)c1Cc1ccc(-c2ccccc2-c2noc(=O)[nH]2)cc1 [Example 12, 3-{4′-{[4-butyl-2-methyl-6-(2-propoxyethoxy)pyrimidin-5-yl]methyl}-[1,1′-biphenyl]-2-yl}-1,2,4-oxadiazol-5(4H)-one]
1600	CCCCc1nc(C)nc(OCCOCCOC)c1Cc1ccc(-c2ccccc2-c2noc(=O)[nH]2)cc1 [Example 13, 3-{4′-{{4-butyl-6-[2-(2-methoxyethoxy)ethoxy]-2-methylpyrimidin-5-yl}methyl}-[1,1′-biphenyl]-2-yl}-1,2,4-oxadiazol-5(4H)-one]
290	CCCCc1nc(C)nc(OCCOCc2ccccc2)c1Cc1ccc(-c2ccccc2-c2noc(=O)[nH]2)cc1 [Example 14, 3-{4′-{{4-[2-(benzyloxy)ethoxy]-6-butyl-2-methylpyrimidin-5-yl}methyl}-[1,1′-biphenyl]-2-yl}-1,2,4-oxadiazol-5(4H)-one]
640	CCCCc1nc(C)nc(OCCOC(C)C)c1Cc1ccc(-c2ccccc2-c2noc(=O)[nH]2)cc1 [Example 16, 3-{4′-{[4-butyl-6-(2-isopropoxyethoxy)-2-methylpyrimidin-5-yl]methyl}-[1,1′-biphenyl]-2-yl}-1,2,4-oxadiazol-5(4H)-one]
410	CCCCc1nc(C)nc(OCCSC)c1Cc1ccc(-c2ccccc2-c2noc(=O)[nH]2)cc1 [Example 17, 3-{4′-{{4-butyl-2-methyl-6-[2-(methylthio)ethoxy]pyrimidin-5-yl}methyl}-[1,1′-biphenyl]-2-yl}-1,2,4-oxadiazol-5(4H)-one]
880	CCCCc1nc(C)nc(OCC(OC)OC)c1Cc1ccc(-c2ccccc2-c2noc(=O)[nH]2)cc1 [Example 19, 3-{4′-{[4-butyl-6-(2,2-dimethoxyethoxy)-2-methylpyrimidin-5-yl]methyl}-[1,1′-biphenyl]-2-yl}-1,2,4-oxadiazol-5(4H)-one]
310	CCCCc1nc(C)nc(OCC(OCC)OCC)c1Cc1ccc(-c2ccccc2-c2noc(=O)[nH]2)cc1 [Example 20, 3-{4′-{[4-butyl-6-(2,2-diethoxyethoxy)-2-methylpyrimidin-5-yl]methyl}-[1,1′-biphenyl]-2-yl}-1,2,4-oxadiazol-5(4H)-one]
400	CCCCc1nc(C)nc(OCC(C)O)c1Cc1ccc(-c2ccccc2-c2noc(=O)[nH]2)cc1 (stereo not shown) [Example 21, 3-{4′-{[4-butyl-6-(2-hydroxypropoxy)-2-methylpyrimidin-5-yl]methyl}-[1,1′-biphenyl]-2-yl}-1,2,4-oxadiazol-5(4H)-one]
1380	CCCCc1nc(C)nc(OCC2OCCO2)c1Cc1ccc(-c2ccccc2-c2noc(=O)[nH]2)cc1 [Example 24, 3-{4′-{{4-[(1,3-dioxolan-2-yl)methoxy]-6-butyl-2-methylpyrimidin-5-yl}methyl}-[1,1′-biphenyl]-2-yl}-1,2,4-oxadiazol-5(4H)-one]
730	CCCCc1nc(C)nc(OC(C(=O)OC)c2ccccc2)c1Cc1ccc(-c2ccccc2-c2noc(=O)[nH]2)cc1 (stereo not shown) [Example 25, methyl 2-{{6-butyl-2-methyl-5-{[2′-(5-oxo-4,5-dihydro-1,2,4-oxadiazol-3-yl)-[1,1-biphenyl]-4-yl]methyl}pyrimidin-4-yl}oxy}-2-phenylacetate]
2080	CCCCc1nc(C)nc(OCC(=O)N2CCCC2)c1Cc1ccc(-c2ccccc2-c2noc(=O)[nH]2)cc1 [Example 29, 3-{4′-{{4-butyl-2-methyl-6-[2-oxo-2-(pyrrolidin-1-yl)ethoxy]pyrimidin-5-yl}methyl}-[1,1′-biphenyl]-2-yl}-1,2,4-oxadiazof-5 (4H)-one]
380	CCCCc1nc(C)nc(OCc2nc(-c3ccc(C)cc3)oc2C)c1Cc1ccc(-c2ccccc2-c2noc(=O)[nH]2)cc1 [Example 32, 3-{4′-{{4-butyl-2-methyl-6-{[5-methyl-2-(p-tolyl)oxazol-4-yl]methoxy}pyrimidin-5-yl}methyl}-[1,1′-biphenyl]-2-yl}-1,2,4-oxadiazol-5(4H)-one]
1360	CCCCc1nc(C)nc(OC2CCC(O)CC2)c1Cc1ccc(-c2ccccc2-c2noc(=O)[nH]2)cc1 (stereo not shown) [Example 34, 3-{4′-{{4-butyl-6-[(4-hydroxycyclohexyl)oxy]-2-methylpyrimidin-5-yl]methyl}-[1,1′-biphenyl]-2-yl}-1,2,4-oxadiazol-5 (4H)-one]
1530	CCCCc1nc(C)nc(OC2CCC(=O)CC2)c1Cc1ccc(-c2ccccc2-c2noc(=O)[nH]2)cc1 [Example 35, 3-{4′-{{4-butyl-2-methyl-6-[(4-oxocyclohexyl)oxy]pyrimidin-5-yl}methyl}-[1,1′-biphenyl]-2-yl}-1,2,4-oxadiazol-5(4H)-one]
630	CCCCc1nc(C)nc(OCCc2ccc(OCCOC)c(OC)c2)c1Cc1ccc(-c2ccccc2-c2noc(=O)[nH]2)cc1 [Example 36, 3-{4′-{{4-butyl-6-[3-methoxy-4-(2-methoxyethoxy)phenethoxy]-2-methylpyrimidin-5-yl}methyl}-[1,1′-biphenyl]-2-yl}-1,2,4-oxadiazol-5 (4H)-one]
840	CCCCCc1nc(C)nc(OCCOC)c1Cc1ccc(-c2ccccc2-c2noc(=O)[nH]2)cc1 [Example 37, 3-{4′-{[4-(2-methoxyethoxy)-2-methyl-6-pentylpyrimidin-5-yl]methyl}-[1,1′-biphenyl]-2-yl}-1,2,4-oxadiazol-5(4H)-one]

Structure (SMILES)	EC50 [nM]
CCCCc1nc(C)nc(OCCCCOC)c1Cc1ccc(-c2ccccc2-c2noc(=O)[nH]2)cc1 [Example 23, 3-{4′-{[4-butyl-6-(4-methoxybutoxy)-2-methylpyrimidin-5-yl]methyl}-[1,1′-biphenyl]-2-yl}-1,2,4-oxadiazol-5(4H)-one]	710
CCCc1nc2c(C)cc(-c3nc4ccccc4n3C)cc2n1Cc1ccc(-c2ccccc2C(=O)O)cc1 [telmisartan, reference compound]	1000 to 5000
